From patent publication US9439432B2, “Phenylisoxazoline-based compound having herbicidal activity and use thereof” (MOGHU RESEARCH CENTER LTD, priority 2011, dated 2016)

How the values were obtained:
Format in all cases: in vivo
Corn [1] = assay: Pre-emergence treatment, phytotoxicity to corn; conditions: 500 g/ha, 4 weeks after spraying, scale 0 to 10 (0: no effects, 10: complete death)
How it was run: (§1)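 Rated 0–10 at 4 weeks after a pre-emergence spray of 62.5–500 g/ha in 300 L/ha spray volume, applied to soil sown with crop and grass weed seeds.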

Echinochloa crusgalli [2] = assay: Post-emergence treatment, herbicidal efficacy on barnyardgrass; conditions: 4 weeks after spraying, scale 0 to 10
How it was run: (§2)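 Values are visual 0–10 ratings (0 no effect, 10 complete death) of weed control or crop phytotoxicity taken four weeks after a post-emergence spray. Plants at about 3-leaf stage received 1,000, 500, 250 or 125 g/ha at 300 L/ha.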

Alopecurus myosuroides [3] = assay: Post-emergence treatment, herbicidal efficacy on blackgrass; conditions: 4 weeks after spraying, scale 0 to 10
How it was run: as §2

Poa annua [4] = assay: Post-emergence treatment, herbicidal efficacy on annual bluegrass; conditions: 4 weeks after spraying, scale 0 to 10
How it was run: as §2

Digitaria sanguinalis [5] = assay: Post-emergence treatment, herbicidal efficacy on large crabgrass; conditions: 4 weeks after spraying, scale 0 to 10
How it was run: as §2

Soybean [6] = assay: Post-emergence treatment, phytotoxicity to soybean; conditions: post-emergence (about 3 leaf stage), 1,000 g/ha, 4 weeks after spraying, scale 0 to 10 (0: no effects, 10: complete death)
How it was run: as §2

[7] = system: barnyardgrass, large crabgrass, and annual bluegrass; assay: Post-emergence treatment, grass weeds overall; conditions: 250 g/ha
Description: (§3) A rectangular plastic pot having a surface area of 300 cm^2 was filled with sandy loam soil and mixed bed soil which were mixed at a ratio of 1:1, and then, barnyardrass (Echinochloa crusgalli), large crabgrass (Digitaria sanguinalis), blackgrass (Alopecurus myosuroides), and annual bluegrass (Poa annua), which are grass weeds, were seeded thereto. In a pot that was prepared as described above, seeds of corn, soybean, cotton, wheat, and rice were seeded. The pots were irrigated, and one day after, chemicals were sprayed thereto. The spraying was performed by using a track sprayer (R&D Sprayer, USA) equipped with a Teejet 8002 (Spraying Systems Co., USA) nozzle, and a spraying amount was adjusted at 300 L/ha. A spraying solution was prepared by dissolving test materials or references in acetone and adding the same amount of 0.2%(v/v) tween 20 aqueous solution thereto. Application rates were 500, 250, 125, and 62.5 g/ha. The pots were placed in a greenhouse in which during day, the temperature was maintained at a temperature of 25 to 30° C., and during night, the temperature was maintained at a temperature of 15 to 25° C., and the pots were periodically irrigated. Four weeks after the spraying the test materials or References, effects and phytotoxicity of the respective weeds and crops were evaluated in a scale of 0 to 10 (0: no effects, 10: complete death), and results thereof are shown in Table 4 below.
Pots containing crops and weeds were prepared in the same manner as in Example 7, and then, in the second week in which crops and weeds entered into about 3 leaf stage, the test materials and the references were sprayed thereto in the same manner as described above. The rates were 1,000, 500, 250, and 125 g/ha. Four weeks after the spraying of the test materials or the references, herbicidal efficacy and phytotoxicity to the respective weeds and crops were evaluated in a scale of 0 to 10 (0: no effects, 10: complete death).

Rice [8] = assay: Pre-emergence treatment, phytotoxicity to rice; conditions: 500 g/ha, 4 weeks after spraying, scale 0 to 10 (0: no effects, 10: complete death)
How it was run: as §1

Cotton [9] = assay: Post-emergence treatment, phytotoxicity to cotton; conditions: post-emergence (about 3 leaf stage), 1,000 g/ha, 4 weeks after spraying, scale 0 to 10 (0: no effects, 10: complete death)
How it was run: as §2

[10] = system: grass weeds including barnyardrass, large crabgrass, and annual bluegrass; assay: Pre-emergence treatment, grass weeds overall; conditions: relative to reference compounds
Description: as §3

Digitaria sanguinalis [11] = assay: Pre-emergence treatment, herbicidal efficacy on large crabgrass; conditions: 4 weeks after spraying, scale 0 to 10
How it was run: as §1

Wheat [12] = assay: Pre-emergence treatment, phytotoxicity to wheat; conditions: 500 g/ha, 4 weeks after spraying, scale 0 to 10 (0: no effects, 10: complete death)
How it was run: as §1

Echinochloa crusgalli [13] = assay: Pre-emergence treatment, herbicidal efficacy on barnyardgrass; conditions: 4 weeks after spraying
How it was run: as §1

Corn [14] = assay: Post-emergence treatment, phytotoxicity to corn; conditions: post-emergence (about 3 leaf stage), 1,000 g/ha, 4 weeks after spraying, scale 0 to 10 (0: no effects, 10: complete death)
How it was run: as §2

Alopecurus myosuroides [15] = assay: Pre-emergence treatment, herbicidal efficacy on blackgrass; conditions: 4 weeks after spraying, scale 0 to 10
How it was run: as §1

Rice [16] = assay: Post-emergence treatment, phytotoxicity to rice; conditions: post-emergence (about 3 leaf stage), 1,000 g/ha, 4 weeks after spraying, scale 0 to 10 (0: no effects, 10: complete death)
How it was run: as §2

Poa annua [17] = assay: Pre-emergence treatment, herbicidal efficacy on annual bluegrass; conditions: 4 weeks after spraying, scale 0 to 10
How it was run: as §1

Wheat [18] = assay: Post-emergence treatment, phytotoxicity to wheat; conditions: post-emergence (about 3 leaf stage), 1,000 g/ha, 4 weeks after spraying, scale 0 to 10 (0: no effects, 10: complete death)
How it was run: as §2

Cotton [19] = assay: Pre-emergence treatment, phytotoxicity to cotton; conditions: 500 g/ha, 4 weeks after spraying, scale 0 to 10 (0: no effects, 10: complete death)
How it was run: as §1

Soybean [20] = assay: Pre-emergence treatment, phytotoxicity to soybean; conditions: 500 g/ha, 4 weeks after spraying, scale 0 to 10 (0: no effects, 10: complete death)
How it was run: as §1

CC1(COCc2c(F)cccc2F)CC(c2ccccc2C(F)(F)F)=NO1 (centres unmarked) [Compound 5, 5-((2,6-difluorobenzyloxy)methyl)-5-methyl-3-(2-(trifluoromethyl)phenyl)-4,5-dihydroisoxazole]
0: Phytotoxicity, Rice (Rice [8]) | Phytotoxicity, Cotton (Cotton [9]) | Phytotoxicity, Wheat (Wheat [12]) | Phytotoxicity, Rice (Rice [16]) | Phytotoxicity, Wheat (Wheat [18])
9: Herbicidal efficacy, Alopecurus myosuroides (Alopecurus myosuroides [3]; post-emergence, 1,000 g/ha) | Herbicidal efficacy, Poa annua (Poa annua [17]; 62.5 g/ha) | Herbicidal efficacy, Poa annua (Poa annua [17]; 125 g/ha) | Herbicidal efficacy, Poa annua (Poa annua [17]; 250 g/ha)
1: Herbicidal efficacy, Alopecurus myosuroides (Alopecurus myosuroides [3]; post-emergence, 125 g/ha) | Phytotoxicity, Cotton (Cotton [19])
4: Herbicidal efficacy, Alopecurus myosuroides (Alopecurus myosuroides [3]; post-emergence, 250 g/ha)
6: Herbicidal efficacy, Echinochloa crusgalli (Echinochloa crusgalli [2]; post-emergence, 125 g/ha) | Herbicidal efficacy, Poa annua (Poa annua [4]; post-emergence, 125 g/ha) | Herbicidal efficacy, Digitaria sanguinalis (Digitaria sanguinalis [5]; post-emergence, 125 g/ha) | Herbicidal efficacy, Alopecurus myosuroides (Alopecurus myosuroides [15]; 125 g/ha)
about 8 times: efficacy stronger than the References [10]
10: Herbicidal efficacy, Echinochloa crusgalli (Echinochloa crusgalli [2]; post-emergence, 500 g/ha) | Herbicidal efficacy, Echinochloa crusgalli (Echinochloa crusgalli [2]; post-emergence, 1,000 g/ha) | Herbicidal efficacy, Poa annua (Poa annua [4]; post-emergence, 1,000 g/ha) | Herbicidal efficacy, Digitaria sanguinalis (Digitaria sanguinalis [5]; post-emergence, 500 g/ha) | Herbicidal efficacy, Digitaria sanguinalis (Digitaria sanguinalis [5]; post-emergence, 1,000 g/ha) | Herbicidal efficacy, Digitaria sanguinalis (Digitaria sanguinalis [11]; 62.5 g/ha) | Herbicidal efficacy, Digitaria sanguinalis (Digitaria sanguinalis [11]; 125 g/ha) | Herbicidal efficacy, Digitaria sanguinalis (Digitaria sanguinalis [11]; 250 g/ha) | Herbicidal efficacy, Digitaria sanguinalis (Digitaria sanguinalis [11]; 500 g/ha) | Herbicidal efficacy, Echinochloa crusgalli (Echinochloa crusgalli [13]; 62.5 g/ha, scale 0 to 10) | Herbicidal efficacy, Echinochloa crusgalli (Echinochloa crusgalli [13]; 125 g/ha, scale 0 to 10) | Herbicidal efficacy, Echinochloa crusgalli (Echinochloa crusgalli [13]; 250 g/ha, scale 0 to 10) | Herbicidal efficacy, Echinochloa crusgalli (Echinochloa crusgalli [13]; 500 g/ha, scale 0 to 10 (0: no effects, 10: complete death)) | Herbicidal efficacy, Poa annua (Poa annua [17]; 500 g/ha)
2: Phytotoxicity, Soybean (Soybean [6]) | Phytotoxicity, Soybean (Soybean [20])
5: Herbicidal efficacy, Alopecurus myosuroides (Alopecurus myosuroides [3]; post-emergence, 500 g/ha) | Phytotoxicity, Corn (Corn [14]) | Herbicidal efficacy, Alopecurus myosuroides (Alopecurus myosuroides [15]; 62.5 g/ha)
greatly suppressed: suppression of barnyardgrass, large crabgrass, and annual bluegrass [7]
7: Herbicidal efficacy, Poa annua (Poa annua [4]; post-emergence, 250 g/ha) | Herbicidal efficacy, Alopecurus myosuroides (Alopecurus myosuroides [15]; 250 g/ha)
8: Herbicidal efficacy, Echinochloa crusgalli (Echinochloa crusgalli [2]; post-emergence, 250 g/ha) | Herbicidal efficacy, Poa annua (Poa annua [4]; post-emergence, 500 g/ha) | Herbicidal efficacy, Digitaria sanguinalis (Digitaria sanguinalis [5]; post-emergence, 250 g/ha) | Herbicidal efficacy, Alopecurus myosuroides (Alopecurus myosuroides [15]; 500 g/ha)
3: Phytotoxicity, Corn (Corn [1])
